Experimental data: article PMC7760315 (Biomolecules, 2020)
“And” between values parts separate entries of the source, which are not always exact repeats. Equal entries are not always repeated. Where two headings read alike, the source gives them in different places.

What was measured:
GlyT2 [1] = details: cited from earlier work
GlyRα1/GlyT2 [2] = target: T1, GlyRα1/GlyT2 (Homo sapiens, UniProt Q9Y345); test: Two-electrode voltage clamp, oocytes co-expressing GlyRα1/GlyT2; type: cell-based; details: 1 µM inhibitor; fast-flow
T1 construct: expressed in transfected cells; host or cells: Xenopus laevis oocytes (cRNA co-injection)
T1 sequence (Q9Y345 1-797): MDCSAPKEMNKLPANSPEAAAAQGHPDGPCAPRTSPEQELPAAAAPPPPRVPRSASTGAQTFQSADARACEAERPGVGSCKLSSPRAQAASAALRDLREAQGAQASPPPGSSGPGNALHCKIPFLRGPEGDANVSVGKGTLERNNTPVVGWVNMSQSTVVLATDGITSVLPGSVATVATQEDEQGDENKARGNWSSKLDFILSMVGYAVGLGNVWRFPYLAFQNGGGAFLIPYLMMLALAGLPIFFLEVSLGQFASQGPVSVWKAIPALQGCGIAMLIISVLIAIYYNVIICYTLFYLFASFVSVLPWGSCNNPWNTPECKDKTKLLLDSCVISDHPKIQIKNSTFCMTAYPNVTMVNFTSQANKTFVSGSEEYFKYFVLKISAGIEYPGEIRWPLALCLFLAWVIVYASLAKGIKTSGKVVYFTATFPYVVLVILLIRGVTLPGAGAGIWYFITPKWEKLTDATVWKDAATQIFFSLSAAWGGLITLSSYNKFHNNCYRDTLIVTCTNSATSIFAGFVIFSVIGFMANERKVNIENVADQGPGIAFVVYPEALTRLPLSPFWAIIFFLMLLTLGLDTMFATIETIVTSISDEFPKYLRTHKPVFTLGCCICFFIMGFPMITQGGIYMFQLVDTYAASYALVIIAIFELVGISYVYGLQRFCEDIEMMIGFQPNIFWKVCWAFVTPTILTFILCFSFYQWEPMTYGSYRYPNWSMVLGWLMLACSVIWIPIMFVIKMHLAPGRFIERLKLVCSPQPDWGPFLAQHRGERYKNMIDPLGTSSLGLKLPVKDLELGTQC
From the text: (§1) Human GlyT1b and GlyT2a WT cDNA were subcloned into the plasmid oocyte transcription vector (pOTV) and human GlyRα1, GlyRα3 and GlyRβ into pGEMHE. GlyR cDNA pGEMHE vectors were provided by Mary Collins at the University of Sydney (Sydney, Australia). Single point mutations were introduced into GlyRα1 using the Q5 site-directed mutagenesis kit (New England Biolabs (Genesearch), Arundel, Australia) with oligonucleotide primers (Merck, Sydney, Australia) containing the desired mutations. The amplified cDNA/pOTV or cDNA/pGEMHE product was then transformed in E. coli cells, and subsequently purified using the PureLink Quick Plasmid Miniprep Kit (Invitrogen by Life Technologies, Löhne, Germany), and sequenced by the Australian Genome Research Facility (Sydney, Australia). The purified plasmid DNA was linearised via the restriction enzyme, SpeI (New England Biolabs (Genesearch), Arundel, Australia) for GlyT1b and GlyT2a (henceforth referred to as GlyT1 and GlyT2 respectively) and NheI (New England Biolabs (Genesearch)) for GlyRα1, GlyRα3 and GlyRβ. Complementary RNAs were synthesised using the mMESAGE mMACHINE T7 kit (Ambion, Austin, TX, USA).
(§2) All work involving the use of animals was performed in accordance with the Australian Code of Practice for the Care and Use of Animals for Scientific Purposes and approved by the University of Sydney Animal Ethics Committee (Approval numbers 2016/970 and 2020/1704). […] The oocytes were then stored in frog Ringer’s solution (96 mM NaCl, 2 mM KCl, 1 mM MgCl2, 1.8 mM CaCl2, 5 mM HEPES, pH 7.5) which was supplemented with 2.5 mM sodium pyruvate, 0.5 mM theophylline, 50 μg/mL gentamicin and […] tetracycline. The oocytes were stored at 18 °C for 3–5 days, until transporter and receptor expression were adequate for measurement using the two-electrode voltage clamp technique.
(§3) GlyT1, GlyT2, GlyRα1, GlyRα3, GlyRα1β and GlyRα3β are electrogenic, allowing activation to be measured via the two-electrode voltage clamp technique. Oocytes were voltage clamped at −60 mV, and whole-cell currents generated by the substrate were recorded with a Geneclamp 500 amplifier (Axon Instruments, Foster City, CA, USA), digitised by a Powerlab 2/20 chart recorder (ADInstruments, Sydney, Australia). LabChart version 8 software (ADInstruments, Sydney, Australia) was used to visualise and process current traces. Recordings were performed in frog Ringer’s solution, except for low Na^+ experiments where Na^+ was replaced with choline. Oocytes were placed in an oval-shaped bath with a volume of 0.3 mL, with laminar flow around the oocyte at a rate of 12 mL min^−1 under gravity feed.
(§4) Varying concentrations of substrate or agonist were applied to cells in ND96. […]

GlyRα1-mCherry = details: read-out: Glycine EC50; tagged receptor alone
Method: (§7) The oocytes were then stored in frog Ringer’s solution (96 mM NaCl, 2 mM KCl, 1 mM MgCl2, 1.8 mM CaCl2, 5 mM HEPES, pH 7.5) which was supplemented with 2.5 mM sodium pyruvate, 0.5 mM theophylline, 50 μg/mL gentamicin and 100 μM mL^−1 tetracycline. The oocytes were stored at 18 °C for 3–5 days, until transporter and receptor expression were adequate for measurement using the two-electrode voltage clamp technique.

GlyRα1 [3] = target: T2, GlyRα1 (Homo sapiens, UniProt P23415); test: Two-electrode voltage clamp, Xenopus laevis oocytes expressing GlyRα1 alone; type: cell-based
T2 construct: expressed in transfected cells; host or cells: Xenopus laevis oocytes (cRNA injection)
T2 sequence (P23415 29-457): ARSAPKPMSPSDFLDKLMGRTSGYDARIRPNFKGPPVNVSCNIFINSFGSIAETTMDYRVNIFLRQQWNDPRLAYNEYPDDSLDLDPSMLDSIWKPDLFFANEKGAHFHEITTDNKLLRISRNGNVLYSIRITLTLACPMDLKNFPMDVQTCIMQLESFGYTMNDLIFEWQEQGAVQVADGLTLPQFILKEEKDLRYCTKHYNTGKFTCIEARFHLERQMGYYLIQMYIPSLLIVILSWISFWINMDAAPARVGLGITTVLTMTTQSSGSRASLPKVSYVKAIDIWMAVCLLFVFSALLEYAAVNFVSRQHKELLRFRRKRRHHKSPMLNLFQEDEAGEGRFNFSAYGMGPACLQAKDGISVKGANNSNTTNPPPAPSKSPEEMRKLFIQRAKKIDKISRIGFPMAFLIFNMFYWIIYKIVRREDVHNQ
From the text: as §1, §2, §3
(§5) Varying concentrations of substrate or agonist were applied to cells in ND96.
(§6) Flow of the solution was stopped until the current plateaued, by manually closing a three-way valve on one end of the bath such that the solution in the bath was static and is referred to henceforth as ‘stop-flow’.

GlyT2-GFP = details: read-out: Glycine EC50; tagged transporter alone
Method: as §7

GlyT2 [4] = target: GlyT2 (Homo sapiens, UniProt Q9Y345); details: read-out: glycine EC50 (transport current); GlyT2 expressed alone
From the text: as §1, §2, §3, §5

GlyT1 = GlyT1 (Homo sapiens, UniProt P48067); details: read-out: glycine EC50 (transport current); GlyT1 expressed alone
From the text: as §1, §2, §3, §5

GlyRα3 = GlyRα3 (Homo sapiens, UniProt O75311); details: read-out: Fast-Flow Glycine EC50
From the text: as §1, §2, §3, §5

GlyRα3/GlyT1 = GlyRα3/GlyT1 (Homo sapiens, UniProt O75311); details: read-out: Fast-Flow Glycine EC50
From the text: as §1, §2, §3, §5

GlyRα3/GlyT2 = GlyRα3/GlyT2 (Homo sapiens, UniProt O75311); details: read-out: Fast-Flow Glycine EC50
From the text: as §1, §2, §3, §5

GlyRα3β/GlyT1 = GlyRα3β/GlyT1 (Homo sapiens, UniProt O75311+P48167); details: read-out: Fast-Flow Glycine EC50
From the text: (§8) Human GlyT1b and GlyT2a WT cDNA were subcloned into the plasmid oocyte transcription vector (pOTV) and human GlyRα1, GlyRα3 and GlyRβ into pGEMHE. […] Single point mutations were introduced into GlyRα1 using the Q5 site-directed mutagenesis kit (New England Biolabs (Genesearch), Arundel, Australia) with oligonucleotide primers (Merck, Sydney, Australia) containing the desired mutations. […] The purified plasmid DNA was linearised via the restriction enzyme, SpeI (New England Biolabs (Genesearch), Arundel, Australia) for GlyT1b and GlyT2a (henceforth referred to as GlyT1 and GlyT2 respectively) and NheI (New England Biolabs (Genesearch)) for GlyRα1, GlyRα3 and GlyRβ. Complementary RNAs were synthesised using the mMESAGE mMACHINE T7 kit (Ambion, Austin, TX, USA). […]
(§9) GlyT1, GlyT2, GlyRα1, GlyRα3, GlyRα1β and GlyRα3β are electrogenic, allowing activation to be measured via the two-electrode voltage clamp technique. Oocytes were voltage clamped at −60 mV, and whole-cell currents generated by the substrate were recorded with a Geneclamp 500 amplifier (Axon Instruments, Foster City, CA, USA), digitised by a Powerlab 2/20 chart recorder (ADInstruments, Sydney, Australia). […]

GlyRα1 [5] = details: cited from earlier work
GlyRα1/GlyT2 [6] = test: Two-electrode voltage clamp, oocytes co-expressing GlyRα1/GlyT2; type: cell-based, human; details: for GlyT contribution to overall peak current (current in presence of strychnine as % of current without) / GlyT contribution to stopped flow current (current in presence of strychnine as % of current without): 1 µM strychnine; for GlyT contribution to overall peak current (current in presence of strychnine as % of current without): fast-flow peak; for GlyT contribution to stopped flow current (current in presence of strychnine as % of current without): stop-flow
From the text: as §1, §2, §3, §4

GlyRα3β/GlyT2 = GlyRα3β/GlyT2 (Homo sapiens, UniProt O75311+P48167); details: read-out: Fast-Flow Glycine EC50
From the text: as §8, §9

GlyRα1/GlyT1 [7] = test: Two-electrode voltage clamp, oocytes co-expressing GlyRα1/GlyT1; type: cell-based, human; details: 1 µM strychnine; for GlyT contribution to overall peak current (current in presence of strychnine as % of current without): fast-flow peak; for GlyT contribution to stopped flow current (current in presence of strychnine as % of current without): stop-flow
From the text: as §1, §2, §3, §5, §6

GlyRα1/GlyT1 [8] = target: T3, GlyRα1/GlyT1 (Homo sapiens, UniProt P23415); test: as above; type: cell-based; details: non-transportable GlyR agonist; read-out: β-alanine EC50
T3 construct: expressed in transfected cells; host or cells: Xenopus laevis oocytes (cRNA co-injection)
T3 sequence (P23415 29-457): T2 sequence (P23415 29-457)
From the text: as §1, §2, §3, §5, §6

GlyRα1/GlyT2 [9] = target: GlyRα1/GlyT2 (Homo sapiens, UniProt P23415); test: Two-electrode voltage clamp, oocytes co-expressing GlyRα1/GlyT2; type: cell-based
From the text: as §1, §2, §3, §4

Chain of GlyT1 (P48067 1-652 isoform P48067-3): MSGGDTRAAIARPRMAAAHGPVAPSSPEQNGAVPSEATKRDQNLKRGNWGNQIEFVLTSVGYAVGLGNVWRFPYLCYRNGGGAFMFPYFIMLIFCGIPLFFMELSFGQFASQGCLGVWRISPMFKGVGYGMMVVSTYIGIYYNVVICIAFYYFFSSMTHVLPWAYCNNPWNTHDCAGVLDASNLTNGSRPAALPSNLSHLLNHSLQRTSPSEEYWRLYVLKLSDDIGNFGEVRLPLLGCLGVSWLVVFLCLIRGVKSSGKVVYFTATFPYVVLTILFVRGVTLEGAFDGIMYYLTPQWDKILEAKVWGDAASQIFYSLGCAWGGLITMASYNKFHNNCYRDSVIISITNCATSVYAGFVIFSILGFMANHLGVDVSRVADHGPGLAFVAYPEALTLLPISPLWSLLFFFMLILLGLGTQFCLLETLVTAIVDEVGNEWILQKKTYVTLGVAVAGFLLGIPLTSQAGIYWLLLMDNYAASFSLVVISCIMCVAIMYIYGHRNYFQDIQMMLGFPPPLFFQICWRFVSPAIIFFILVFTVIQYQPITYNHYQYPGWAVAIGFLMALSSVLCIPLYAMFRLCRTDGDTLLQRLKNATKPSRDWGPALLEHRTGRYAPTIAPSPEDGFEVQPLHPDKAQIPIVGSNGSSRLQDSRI
Chain of GlyRα3β/GlyT2 (O75311 34-464): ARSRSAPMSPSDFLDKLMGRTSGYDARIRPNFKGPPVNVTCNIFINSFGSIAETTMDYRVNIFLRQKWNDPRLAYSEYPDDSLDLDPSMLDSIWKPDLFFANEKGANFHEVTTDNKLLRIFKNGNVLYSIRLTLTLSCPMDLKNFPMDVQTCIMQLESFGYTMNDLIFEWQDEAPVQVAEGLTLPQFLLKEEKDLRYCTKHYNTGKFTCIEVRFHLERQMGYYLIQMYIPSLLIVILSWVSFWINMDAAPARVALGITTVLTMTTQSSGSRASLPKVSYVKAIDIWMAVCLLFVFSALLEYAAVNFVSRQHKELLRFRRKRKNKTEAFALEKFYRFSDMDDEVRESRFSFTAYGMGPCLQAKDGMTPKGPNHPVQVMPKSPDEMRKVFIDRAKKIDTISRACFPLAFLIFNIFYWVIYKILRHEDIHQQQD
Chain of GlyRα3β/GlyT2 (P48167 23-497): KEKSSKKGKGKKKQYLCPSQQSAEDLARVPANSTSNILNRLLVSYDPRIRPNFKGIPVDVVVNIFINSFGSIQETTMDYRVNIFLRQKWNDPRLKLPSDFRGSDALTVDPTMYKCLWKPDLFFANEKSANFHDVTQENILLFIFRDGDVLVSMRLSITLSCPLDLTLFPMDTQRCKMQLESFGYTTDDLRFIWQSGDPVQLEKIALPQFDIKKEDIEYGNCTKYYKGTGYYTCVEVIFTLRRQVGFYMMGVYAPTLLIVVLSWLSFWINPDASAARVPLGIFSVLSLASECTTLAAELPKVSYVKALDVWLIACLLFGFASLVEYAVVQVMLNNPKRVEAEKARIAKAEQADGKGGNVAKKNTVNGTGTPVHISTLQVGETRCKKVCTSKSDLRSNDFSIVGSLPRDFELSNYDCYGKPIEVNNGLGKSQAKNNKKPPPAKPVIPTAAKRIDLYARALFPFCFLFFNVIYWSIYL
Chain of GlyRα3 (O75311 34-464): as the sequence (O75311 34-464) above
Chain of GlyRα3/GlyT1 (O75311 34-464): as above
Chain of GlyRα3/GlyT2 (O75311 34-464): as above
Chain of GlyRα3β/GlyT1 (O75311 34-464): as above
Chain of GlyRα3β/GlyT1 (P48167 23-497): as the sequence (P48167 23-497) above

For `COc1cc(C(=O)NCC2(N(C)C)CCCC2)cc(OC)c1OCc1ccccc1` [ORG-25543], the IC50 (GlyT2 [1]) is listed as 0.016 µM and the “nH of glycine dose-response in the presence of GlyT inhibitor” value (GlyRα1/GlyT2 [2]) is listed as 2.6 ± 0.4 ns.

For `NCC(=O)O` [glycine], the EC50 (GlyRα1-mCherry) was 15.7 µM, the “Peak Current” value (GlyRα1 [3]) was 740.6 ± 105.9 nA and the EC50 (GlyT2-GFP) was 28.1 µM. For the same compound, the EC50 (GlyT2 [4]) was 21.8 µM and ~30 µM, the EC50 (GlyT1) was roughly 35 µM and the EC50 (GlyRα3) was 64.8 µM. The EC50 (GlyRα3/GlyT1) was 154 µM, the EC50 (GlyRα3/GlyT2) was 160 µM and the EC50 (GlyRα3β/GlyT1) was 220 µM. The EC50 (GlyRα1 [5]; read-out: glycine EC50, ref 51) was 24 µM, the EC50 (GlyRα1 [5]; read-out: glycine EC50, ref 52) was 42 µM and the EC50 (GlyRα1 [5]; read-out: glycine EC50 values in oocytes, variable with maximal current) was 20 to 280 µM. For the same compound, the EC50 (GlyRα1/GlyT2 [6]; read-out: Fast-Flow Glycine EC50) was 30.9 µM and 41.6 µM and 34.1 µM and 27.9 µM and 27.3 µM, the EC50 (GlyRα1/GlyT2 [6]; read-out: Glycine EC50) was 23 µM and the EC50 (GlyRα1/GlyT2 [6]; read-out: Stop-Flow Glycine EC50) was 83.1 µM. The EC50 (GlyRα3β/GlyT2) was 224 µM.

For `O=C1C[C@@H]2OCC=C3CN4CC[C@]56c7ccccc7N1[C@H]5[C@H]2[C@H]3C[C@H]46` [strychnine], the “GlyT contribution to overall peak current (current in presence of strychnine as % of current without)” value (GlyRα1/GlyT1 [7]; 10 µM glycine) was 53.2 ± 6.9%, the “GlyT contribution to stopped flow current (current in presence of strychnine as % of current without)” value (GlyRα1/GlyT1 [7]; 10 µM glycine) was 61.5 ± 13.9% and the “GlyT contribution to overall peak current (current in presence of strychnine as % of current without)” value (GlyRα1/GlyT1 [7]; 30 µM glycine) was 14.4 ± 1.8%. The “GlyT contribution to stopped flow current (current in presence of strychnine as % of current without)” value (GlyRα1/GlyT1 [7]; 30 µM glycine) was 5.2 ± 1.3%, the “GlyT contribution to overall peak current (current in presence of strychnine as % of current without)” value (GlyRα1/GlyT2 [6]; 10 µM glycine) was 16.6 ± 3.7% and the “GlyT contribution to stopped flow current (current in presence of strychnine as % of current without)” value (GlyRα1/GlyT2 [6]; 10 µM glycine) was 16.2 ± 2.1%. The “GlyT contribution to overall peak current (current in presence of strychnine as % of current without)” value (GlyRα1/GlyT2 [6]; 30 µM glycine) was 1.7 ± 0.4% and the “GlyT contribution to stopped flow current (current in presence of strychnine as % of current without)” value (GlyRα1/GlyT2 [6]; 30 µM glycine) was 1.6 ± 0.4%.

Work on `NCCC(=O)O` [β-alanine] yielded an EC50 (GlyRα1 [3]; non-transportable GlyR agonist, read-out: β-alanine EC50) of 28.3 µM, an EC50 (GlyRα1/GlyT1 [8]) of 28 µM and an EC50 (GlyRα1/GlyT2 [9]) of 27.4 µM.
